Where a name gives a salt, the structure may show the parent alone.
Tests used:
[1] = molecular target: T1, human CB1 receptor (Homo sapiens, UniProt P21554); test: In-vitro efficacy and potency at the human CB1 receptor expressed in CHO cells (luciferase reporter gene assay); type: cell-based; conditions: CHO cells expressing human CB1 receptor and luciferase reporter gene; 5 h incubation at 37° C.
T1 construct: expressed in transfected cells; host or cells: Chinese Hamster Ovary (CHO) cells
Protocol: In-vitro Determination of Efficacy and Potency at the Human CB1 Receptor Expressed in CHO Cells
Chinese Hamster Ovary (CHO) cells expressing the human CB1 receptor and a luciferase reporter gene were suspended in phenol red/serum free DMEM/F-12 nut mix containing penicillin/streptomycin (50 U/50 μg/ml) and fungizone (1 μg/ml) and seeded into 96 well plates at a density of 3×10^4 cells per well (100 μl final volume). Cells were incubated overnight (approx. 18 h at 37° C., 5% CO2/95% air) prior to assay. […] The stock solutions (10 μl) were added directly to the relevant wells. The plates were incubated at 37° C. for 5 h to allow agonist-induced expression of the luciferase enzyme. Under subdued light, LucLite substrate (Packard; reconstituted as per manufacturer's instructions; 100 μl) was added to each well. Plates were covered with Top Seal and then incubated at room temperature for 5 minutes before counting on the Packard TopCount (single photon counting, 0.01 minute count time, 5 minute count delay).

[2] = system: Mice; test: Tail flick latency in mice; type: in vivo; conditions: Mus musculus, iv, administered intravenously, ED50 calculated at Tmax, significantly increased the tail flick latency, read-out: ED50 (increase of tail flick latency)
Protocol: Tail Flick Latency in Mice
Mice were trained to sit still in a tail flick apparatus (Ugo Basile, Italy) whilst tail flick latency was measured. The tail was exposed to a focused beam of radiant heat at a point approximately 2.5 cm from the tip. Tail flick latency was defined as the interval between the appliance of the thermal stimulus and withdrawal of the tail. A 12 second cut-off was employed to prevent tissue damage. Four groups of eight mice were treated with vehicle or one of three doses of the test compound, administered intravenously (vehicle: 10% Tween-80 in saline; injection volume 10 ml/kg). Tail flick latency was measured before administration of the test compound and at regular intervals (typically 20, 40 and 60 minutes) after compound administration. The ED50 was calculated at Tmax.

T1 sequence (P21554 whole entry): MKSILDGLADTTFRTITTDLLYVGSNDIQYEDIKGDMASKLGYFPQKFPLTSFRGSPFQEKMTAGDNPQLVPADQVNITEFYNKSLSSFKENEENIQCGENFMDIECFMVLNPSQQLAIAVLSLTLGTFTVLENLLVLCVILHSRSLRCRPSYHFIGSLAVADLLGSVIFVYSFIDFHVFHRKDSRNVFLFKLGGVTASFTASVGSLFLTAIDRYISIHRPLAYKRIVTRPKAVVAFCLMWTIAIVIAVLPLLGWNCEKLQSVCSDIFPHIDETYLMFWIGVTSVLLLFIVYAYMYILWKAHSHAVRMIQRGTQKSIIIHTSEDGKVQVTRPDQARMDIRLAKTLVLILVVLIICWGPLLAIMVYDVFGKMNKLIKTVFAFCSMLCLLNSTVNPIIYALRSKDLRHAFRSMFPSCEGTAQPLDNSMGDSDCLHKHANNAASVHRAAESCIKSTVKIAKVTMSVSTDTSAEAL

Row | Structure (SMILES) | EC50 [1] | ED50 [2]
1 | COc1cccc2c(-c3noc([C@H]4CCCN4C)n3)cn(CC3CCCCC3)c12 [Example 2G, (R)-1-(Cyclohexyl)methyl-7-methoxy-3-[5-(1-methylpyrrolidin-2-yl)-[1,2,4]oxadiazol-3-yl]-1H-indole, hydrochloride salt] | 31.6 nM | < 5 µmol/kg
2 | CCN(CC)Cc1nc(-c2cn3c4c(cccc24)OC[C@H]3C2CCCCC2)ns1 [Example 13, (R)-3-Cyclohexyl-6-{5-[(diethylamino)methyl]-[1,2,4]-thiadiazol-3-yl}-2,3-dihydropyrrolo[1,2,3-de]-1,4-benzoxazine, hydrochloride salt] | 7.94 nM | < 5 µmol/kg
3 | Fc1cccc2c(-c3nsc(CN4CCCC4)n3)cn(CC3CCOCC3)c12 [Example 14B, 7-fluoro-3-{5-[(pyrrolidin-1-yl)methyl]-[1,2,4]-thiadiazol-3-yl}1-(tetrahydropyran-4-yl)methyl-1H-indole, hydrochloride salt] | 50.1 nM | < 5 µmol/kg
4 | CCN(CCOC)Cc1nc(-c2cn(CC3CCOCC3)c3c(Cl)cccc23)ns1 [Example 15A, 7-chloro-3-(5-{[N-ethyl-N-(2-methoxyethyl)amino]methyl}-[1,2,4]-thiadiazol-3-yl)-1-(tetrahydropyran-4-yl)methyl-1H-indole, hydrochloride salt] | 10 nM | < 5 µmol/kg
5 | Clc1cccc2c(-c3nsc(CN4CCCC4)n3)cn(CC3CCOCC3)c12 [Example 15B, 7-chloro-3-{5-[(Pyrrolidin-1-yl)methyl]-[1,2,4]-thiadiazol-3-yl}1-(tetrahydropyran-4-yl)methyl-1H-indole, hydrochloride salt] | 20 nM | < 5 µmol/kg
6 | CCN(CCO)Cc1nc(-c2cn(CC3CCOCC3)c3c(Cl)cccc23)ns1 [Example 15C, 7-chloro-3-(5-{[N-ethyl-N-(2-hydroxyethyl)amino]methyl}-[1,2,4]-thiadiazol-3-yl)-1-(tetrahydropyran-4-yl)methyl-1H-indole] | 10 nM | < 5 µmol/kg
7 | COCCN(Cc1csc(-c2cn(CC3CCCCC3)c3c(Cl)cccc23)n1)C(C)C [Example 20, 7-Chloro-1-(cyclohexyl)methyl-3-(4-{[N-isopropyl-N-(2-methoxyethyl)amino]methyl}-[1,3]-thiazol-2-yl)-1H-indole, hydrochloride salt] | 5.01 nM | < 5 µmol/kg
8 | CC(C)N(CCO)Cc1csc(-c2cn(CC3CCOCC3)c3c(Cl)cccc23)n1 [Example 23B, 7-Chloro-3-(4-{[N-(2-hydroxyethyl)-N-isopropylamino]methyl}-1,3-thiazol-2-yl)-1-(tetrahydropyran-4-yl)methyl-1H-indole] |  | < 5 µmol/kg
9 | CCN(CCO)Cc1csc(-c2cn(CC3CCOCC3)c3c(Cl)cccc23)n1 [Example 23C, 7-Chloro-3-(4-{[N-ethyl-N-(2-hydroxyethyl)amino]methyl}-[1,3]-thiazol-2-yl)-1-(tetrahydropyran-4-yl)methyl-1H-indole] |  | < 5 µmol/kg
10 | CCN(CC)Cc1ncc(-c2cn(CC3CCCCC3)c3c(OC)cccc23)o1 [Example 32, 1-(Cyclohexyl)methyl-3-{2-[(diethylamino)methyl]-[1,3]-oxazol-5-yl}-7-methoxy-1H-indole, hydrochloride salt] | 50.1 nM | 
11 | CCN1Cc2snc(-c3cn(CC4CCCCC4)c4c(OC)cccc34)c2C1 [Example 33, 1-(Cyclohexyl)methyl-3-(5-ethyl-5,6-dihydro-4H-pyrrolo[3,4-d]isothiazol-3-yl)-7-methoxy-1H-indole, hydrochloride salt] | 79.4 nM | 
12 | COc1cccc2c(-c3nnc(CN4CCCC4)s3)cn(CC3CCCCC3)c12 [Example 38, 1-(Cyclohexyl)methyl-7-methoxy-3-{5-[(pyrrolidin-1-yl)methyl]-[1,3,4]-thiadiazol-2-yl}-1H-indole, hydrochloride salt] | 79.4 nM | 
13 | CC1(C)CCCN1Cc1nc(-c2cn(CC3CCOCC3)c3c(Cl)cccc23)no1 [Example 39, 7-Chloro-3-{5-[(2,2-dimethyl-pyrolidin-1-yl)methyl]-[1,2,4]oxadiazol-3-yl}-1-(tetrahydropyran-4-yl)methyl-1H-indole, hydrochloride salt] | 31.6 nM | < 5 µmol/kg

— patent publication US7700634B2, “(Indol-3-yl) heterocycle derivatives as agonists of the cannabinoid CB1 receptor” (N.V. Organon, priority 2004, dated 2010)
